Test results from US6423518B1, “Design and production of mutant 2,5-diketo-D-gluconic acid reductase enzymes with altered cofactor dependency” (Rutgers, the State University, priority 2000, dated 2002).

How the values were obtained:
Assay in all cases: Kinetic determination with purified enzyme, NADH cofactor, initial rates (microtiter plate)
Format in all cases: biochemical
[1] = target: T1, 2,5-diketo-D-gluconic acid reductase A (Corynebacterium sp., wild type SEQ ID NO:1) variant K232M (Corynebacterium sp., UniProt P06632, K232M)
T1 construct: GroES fragment (N); made in house; host or cells: E. coli JM109
Experimental: (§1) The activities of the purified enzymes were assayed in 96-well microtiter plates on a plate reader.
(§2) Equation (1) is: [formula]
(§3) B=2,5-diketo-D-gluconic acid concentration;
(§4) Kb=Michaelis Constant for 2,5-diketo-D-gluconic acid;
(§5) Et=Total enzyme concentration.
(§6) This equation is only valid when B<<Kb.
(§7) Cells containing plasmids for some of the mutant reductases were grown up on a 1 liter scale using a 10 ml inoculum from a saturated overnight culture. The cells were grown until absorbance of the culture at 600 nm was approximately 1.0. The cells were then induced by adding IPTG to a final concentration of 1 mM. The cells were harvested after growth at 37° C. for 4 hours. The cells were then pelleted by centrifugation and frozen for later use. At a later date, cells were thawed and lysed with the Bug Buster detergent (Novagen) containing Complete Protease Inhibitor Cocktail Tablets (Roche). The pH was lowered to 5.5 with 20 mM sodium acetate (NaOAc) and NaCl was added to a final concentration of 0.15 M. After 10 minutes with the detergent, the cell debris was removed by centrifugation, and the supernatant was loaded onto disposable chromatography columns containing a 10 ml bed volume of DEAE Cellulose (Sigma) for a batch weak ion exchange step. The resin was washed with 0.15 M NaCl, still in the presence of NaOAc, pH 5.5. The bound proteins were then eluted by two washes with 0.5 M NaCl.

[2] = target: T2, 2,5-diketo-D-gluconic acid reductase A (Corynebacterium sp., wild type SEQ ID NO:1) variant K232Q (Corynebacterium sp., UniProt P06632, K232Q)
T2 construct: GroES fragment (N); made in house; host or cells: E. coli JM109
Experimental: as §1, §2, §3, §4, §5, §6, §7

[3] = target: T3, 2,5-diketo-D-gluconic acid reductase A (Corynebacterium sp., wild type SEQ ID NO:1) variant K232G (Corynebacterium sp., UniProt P06632, K232G)
T3 construct: GroES fragment (N); made in house; host or cells: E. coli JM109
Experimental: as §1, §2, §3, §4
(§8) Kia=Dissociation Constant for NADH;
as §5
(§9) However, the parameters could not be fit in this model with any accuracy, due to the large apparent value of KM for 2,5-diketo-D-gluconic acid, and the low concentration of 2,5-diketo-D-gluconic acid that was used. The 2,5-diketo-D-gluconic acid concentrations were not large enough to saturate the enzyme, so a further mathematical simplification was required. Preliminary fitting of the model indicated both kcat and Kb to be very large in comparison to Ka and Kia Therefore, the rate equation was simplified to the following equation (2): [formula]
as §6
(§10) This equation was then used to fit the kinetic data, with much better results.
(§11) Other comparisons can also be made between the different mutants using these parameters. […]
as §7, with “NaCl. The eluted material was then diluted back to 0.15 M NaCl by the addition of more 20 mM NaOAc buffer. This was then loaded onto a 4.6 mmD/100mml PEEK column (PerSeptive Biosystems) containing 50 μm DEAE Ceramic HyperD F resin (BioSepra) using an FPLC system. The high performance resin was washed with 0.1 M NaCl and the bound proteins were eluted using a linear salt gradient up to 0.4 M NaCl. Active fractions were pooled and the pH was raised to 7.0 using 50 mM bis-Tris. The pooled fractions were then concentrated by ultrafiltration in a stirred cell unit using a polyethersulfone membrane with a 10,000 MW cut-off (Millipore). The concentrate was loaded onto a Superdex-75 gel filtration column (Pharmacia) using 50 mM bis-Tris pH 7.0 with an FPLC system. The active fractions were again pooled. A small sample from the pooled fractions was electrophoresed on a polyacrylamide gel in the presence of SDS in order to insure homogeneity of the final product.” for “NaCl.”
(§12) NADPH and NADH were prepared fresh for each use in kinetic measurements. These reactions were performed in 96-well microtiter plates using a SpectraMax 190 plate reader (Molecular Devices). Varying amounts of cofactor and substrate were added to the wells and reaction was initiated by the addition of the mutant enzyme. The final volume of each reaction was 200 μl, the reactions were buffered with 50 mM bis-Tris pH 7.0, and the temperature was held at 25° C. […] Initial rate data was collected in each well, and a standard curve was generated each day in order to correlate the change in absorbance of the reaction to a change in concentration of cofactors. All measurements were performed in triplicate (at least) and the runs were averaged for use in kinetic modeling.

[4] = target: T4, 2,5-diketo-D-gluconic acid reductase A (Corynebacterium sp., wild type SEQ ID NO:1) variant K232S (Corynebacterium sp., UniProt P06632, K232S)
T4 construct: GroES fragment (N); made in house; host or cells: E. coli JM109
Experimental: as §1, §2, §3, §4, §8, §5, §9, §6, §10, §11
as §7, with “NaCl. The eluted material was then diluted back to 0.15 M NaCl by the addition of more 20 mM NaOAc buffer. This was then loaded onto a 4.6 mmD/100mml PEEK column (PerSeptive Biosystems) containing 50 μm DEAE Ceramic HyperD F resin (BioSepra) using an FPLC system. The high performance resin was washed with 0.1 M NaCl and the bound proteins were eluted using a linear salt gradient up to 0.4 M NaCl. Active fractions were pooled and the pH was raised to 7.0 using 50 mM bis-Tris. The pooled fractions were then concentrated by ultrafiltration in a stirred cell unit using a polyethersulfone membrane with a 10,000 MW cut-off (Millipore). The concentrate was loaded onto a Superdex-75 gel filtration column (Pharmacia) using 50 mM bis-Tris pH 7.0 with an FPLC system. The active fractions were again pooled. A small sample from the pooled fractions was electrophoresed on a polyacrylamide gel in the presence of SDS in order to insure homogeneity of the final product.” for “NaCl.”
as §12

[5] = target: T5, 2,5-diketo-D-gluconic acid reductase A (Corynebacterium sp., wild type SEQ ID NO:1) variant R235G (Corynebacterium sp., UniProt P06632, R235G)
T5 construct: GroES fragment (N); made in house; host or cells: E. coli JM109
Experimental: as §1, §2, §3, §4, §8, §5, §9, §6, §10, §11
as §7, with “NaCl. The eluted material was then diluted back to 0.15 M NaCl by the addition of more 20 mM NaOAc buffer. This was then loaded onto a 4.6 mmD/100mml PEEK column (PerSeptive Biosystems) containing 50 μm DEAE Ceramic HyperD F resin (BioSepra) using an FPLC system. The high performance resin was washed with 0.1 M NaCl and the bound proteins were eluted using a linear salt gradient up to 0.4 M NaCl. Active fractions were pooled and the pH was raised to 7.0 using 50 mM bis-Tris. The pooled fractions were then concentrated by ultrafiltration in a stirred cell unit using a polyethersulfone membrane with a 10,000 MW cut-off (Millipore). The concentrate was loaded onto a Superdex-75 gel filtration column (Pharmacia) using 50 mM bis-Tris pH 7.0 with an FPLC system. The active fractions were again pooled. A small sample from the pooled fractions was electrophoresed on a polyacrylamide gel in the presence of SDS in order to insure homogeneity of the final product.” for “NaCl.”
as §12

[6] = target: T6, 2,5-diketo-D-gluconic acid reductase A (Corynebacterium sp., wild type SEQ ID NO:1) variant R235T (Corynebacterium sp., UniProt P06632, R235T)
T6 construct: GroES fragment (N); made in house; host or cells: E. coli JM109
Experimental: as §1, §2, §3, §4, §8, §5, §9, §6, §10, §11
as §7, with “NaCl. The eluted material was then diluted back to 0.15 M NaCl by the addition of more 20 mM NaOAc buffer. This was then loaded onto a 4.6 mmD/100mml PEEK column (PerSeptive Biosystems) containing 50 μm DEAE Ceramic HyperD F resin (BioSepra) using an FPLC system. The high performance resin was washed with 0.1 M NaCl and the bound proteins were eluted using a linear salt gradient up to 0.4 M NaCl. Active fractions were pooled and the pH was raised to 7.0 using 50 mM bis-Tris. The pooled fractions were then concentrated by ultrafiltration in a stirred cell unit using a polyethersulfone membrane with a 10,000 MW cut-off (Millipore). The concentrate was loaded onto a Superdex-75 gel filtration column (Pharmacia) using 50 mM bis-Tris pH 7.0 with an FPLC system. The active fractions were again pooled. A small sample from the pooled fractions was electrophoresed on a polyacrylamide gel in the presence of SDS in order to insure homogeneity of the final product.” for “NaCl.”
as §12

[7] = kcat/Ka apparent with NADH, relative to wild type
[8] = versus wild type, NADH as varied substrate

T3 sequence (P06632 whole entry K232G, the tested form may be a part): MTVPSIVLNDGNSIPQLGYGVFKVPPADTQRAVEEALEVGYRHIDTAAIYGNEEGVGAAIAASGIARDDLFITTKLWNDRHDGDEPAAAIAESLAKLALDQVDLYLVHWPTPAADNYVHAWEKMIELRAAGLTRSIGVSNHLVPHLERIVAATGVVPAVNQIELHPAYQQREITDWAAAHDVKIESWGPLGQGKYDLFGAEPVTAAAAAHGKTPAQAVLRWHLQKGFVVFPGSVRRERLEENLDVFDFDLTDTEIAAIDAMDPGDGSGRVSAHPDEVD
T4 sequence (P06632 whole entry K232S, the tested form may be a part): as the sequence (P06632 whole entry K232G, the tested form may be a part) above, with G232S counted along it
T5 sequence (P06632 whole entry R235G, the tested form may be a part): as the sequence (P06632 whole entry K232G, the tested form may be a part) above, with G232K, R235G counted along it
T1 sequence (P06632 whole entry K232M, the tested form may be a part): as the sequence (P06632 whole entry K232G, the tested form may be a part) above, with G232M counted along it
T2 sequence (P06632 whole entry K232Q, the tested form may be a part): as the sequence (P06632 whole entry K232G, the tested form may be a part) above, with G232Q counted along it
T6 sequence (P06632 whole entry R235T, the tested form may be a part): as the sequence (P06632 whole entry K232G, the tested form may be a part) above, with G232K, R235T counted along it

NC(=O)C1=CN([C@@H]2O[C@H](COP(=O)(O)OP(=O)(O)OC[C@H]3O[C@@H](n4cnc5c(N)ncnc54)[C@H](O)[C@@H]3O)[C@@H](O)[C@H]2O)C=CC1 [NADH]
Kd [1]: 3.89 ± 0.23 mM | (kcat/KbKia)/(kcat/KbKia)wt [1, 7]: 0.55 | Kd [2]: 3.87 ± 0.34 mM | (kcat/KbKia)/(kcat/KbKia)wt [2, 7]: 0.59 | Kd [3]: 2.02 ± 0.12 mM | (kcat/KbKia)/(kcat/KbKia)wt [3, 7]: 1.55 | Kia/(Kia)wt ([3]; relative to wild type, NADH): 0.78 | Kd [4]: 2.82 ± 0.27 mM | (kcat/KbKia)/(kcat/KbKia)wt [4, 7]: 0.40 | Kia/(Kia)wt ([4]; relative to wild type, NADH): 1.08 | Kd [5]: 8.42 ± 0.69 mM | (kcat/KbKia)/(kcat/KbKia)wt [5, 7]: 1.53 | Kia/(Kia)wt ([5]; relative to wild type, NADH): 3.24 | increase of apparent Ka [5, 8]: more than 3 fold | increase of apparent kcat [5, 8]: 5 fold | Kd [6]: 8.84 ± 2.28 mM
